# Assay results: US11110082B2, “Tyrosine kinase inhibitors” (Rigel Pharmaceuticals, Inc., priority 2016, dated 2021)
# Biological target: T1, MerTK (Homo sapiens, UniProt Q12866)
# T1 construct: Seed HUVECs (10K cells/well) in EBM-2 complete media; host or cells: HUVEC (primary human umbilical vein endothelial cells)
# T1 sequence (Q12866 21-999): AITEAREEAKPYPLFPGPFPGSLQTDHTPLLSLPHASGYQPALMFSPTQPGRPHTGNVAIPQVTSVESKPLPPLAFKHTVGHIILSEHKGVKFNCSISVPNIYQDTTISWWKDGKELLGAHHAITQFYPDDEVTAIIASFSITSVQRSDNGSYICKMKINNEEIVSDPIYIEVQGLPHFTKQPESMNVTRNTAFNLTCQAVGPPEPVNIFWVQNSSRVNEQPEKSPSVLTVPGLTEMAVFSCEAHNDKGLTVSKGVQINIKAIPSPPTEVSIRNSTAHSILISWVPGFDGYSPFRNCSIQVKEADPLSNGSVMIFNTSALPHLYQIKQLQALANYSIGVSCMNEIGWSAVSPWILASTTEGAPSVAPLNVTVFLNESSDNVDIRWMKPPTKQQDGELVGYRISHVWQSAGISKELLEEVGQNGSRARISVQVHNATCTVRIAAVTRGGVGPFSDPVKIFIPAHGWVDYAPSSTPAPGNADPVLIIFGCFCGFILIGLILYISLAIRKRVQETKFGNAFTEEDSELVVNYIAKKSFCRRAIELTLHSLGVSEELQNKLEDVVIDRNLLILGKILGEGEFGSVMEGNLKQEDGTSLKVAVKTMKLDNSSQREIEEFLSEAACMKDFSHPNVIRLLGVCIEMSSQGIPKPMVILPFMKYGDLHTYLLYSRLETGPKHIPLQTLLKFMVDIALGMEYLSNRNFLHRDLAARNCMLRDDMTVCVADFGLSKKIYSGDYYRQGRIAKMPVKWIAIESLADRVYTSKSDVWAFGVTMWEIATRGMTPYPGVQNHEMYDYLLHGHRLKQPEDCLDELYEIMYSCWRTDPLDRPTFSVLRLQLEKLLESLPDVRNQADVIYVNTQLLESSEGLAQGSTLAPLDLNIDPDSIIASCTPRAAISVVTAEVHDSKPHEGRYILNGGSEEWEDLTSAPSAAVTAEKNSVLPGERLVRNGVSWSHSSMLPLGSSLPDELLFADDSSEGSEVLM
# Test: PAKT HTRF-HUVEC assay (pAkt Ser473 HTRF after anti-human MerTK-XL stimulation)
# Format: cell-based
# Conditions: HUVEC cells, 1 hour compound, stimulated with anti-human MerTK-XL 1 ug/mL for 10 minutes, read-out: inhibition of MerTK
# Description: Example 4: PAKT HTRF-HUVEC Assay Phospho Akt (Ser473) Assay kit-10,000 tests (Cisbio US, 64[…]) HUVEC cells (Lonza, CC-2519) Anti-human MerTK antibody (Clone 125518) (R&D Systems, MAB8912) Method Seed HUVECs (10K cells/well) in EBM-2 complete media (EBM-2 basal medium plus EGM-2 BulletKit supplements) overnight at 37° C., 5% CO2 in Costar 96-well white clear-bottom plates. Remove culture media and starve cells for 3-4 hours in 50 μL/well EBM-2 basal medium. Perform serial dilution of compounds in DMSO from 2.5 mM in 4-fold dilutions, and then dilute 1:125 in EBM-2 basal media. Mix 50 μL/well 2x compounds with 50 μL/well HUVECs in duplicate in Costar 96-well white clear-bottom plates. Incubate plates for 1 hour at 37° C., 5% CO2. Cross-link anti-human MerTK antibody to Biotin-SP-conjugated anti-mouse IgG antibody (1:1) to give final concentrations of 5 ug/mL of anti-human MerTK-XL. Stimulate HUVECs with 25 μL/well 5x anti-human MerTK-XL to give final concentrations of 1 ug/mL for 10 minutes at 37° C., 5% CO2. Completely remove media and lyse HUVECs with 40 uL/WELL per well of Cisbio HTRF 1× lysis buffer. Performed pAkt(Ser473) HTRF assay in ProxiPlate-384 Plus, white 384-shallow well microplate according to the vendor protocol and read plates with a SpectralMax Paradigm plate reader. Enter the HTRF values into Athena (Rigel) for curve fitting, EC50 calculation, and database storage.
row,Compound,EC50
1,"O=c1c2cc(CN3CC[N@+]4([O-])CC[C@@H]3CC4)ccc2c2cnc(NCC3CC3)nc2n1C1CCC(O)CC1 (relative stereo) [Compound 51, trans-4-((3-((Cyclopropylmethyl)amino)-5-(4-hydroxycyclohexyl)-6-oxo-5,6-dihydropyrimido[4,5-c]isoquinolin-8-yl)methyl)-1,4-diazabicyclo[3.2.2]nonane 1-oxide]",11900 nM
2,"CCC(F)(F)CNc1ncc2c3ccc(CN4CCOCC4)cc3c(=O)n([C@H]3CC[C@H](O)CC3)c2n1 [Compound 1, trans-3-((2,2-Difluorobutyl)amino)-5-(4-hydroxycyclohexyl)-8-(morpholinomethyl)pyrimido [4,5-c]isoquinolin-6(5H)-one]",247 nM
3,"CCCCNc1ncc2c3ccc(CN4CCOCC4)cc3c(=O)n([C@H]3CC[C@H](O)CC3)c2n1 [Compound 2, trans-3-(Butylamino)-5-(4-hydroxycyclohexyl)-8-(morpholinomethyl)pyrimido [4,5-c]isoquinolin-6(5H)-one]",44.2 nM
4,"CCCCNc1ncc2c3ccc(CN4CCN(C)CC4)cc3c(=O)n([C@H]3CC[C@H](O)CC3)c2n1 [Compound 3, trans-3-(Butylamino)-5-(4-hydroxycyclohexyl)-8-((4-methylpiperazin-1-yl)methyl)pyrimido[4,5-c]isoquinolin-6(5H)-one]",28.8 nM
5,"CCCCNc1ncc2c3ccc(CN4CCOCC4)cc3c(=O)n([C@H]3CC[C@@H](O)CC3)c2n1 [Compound 4, cis-3-(Butylamino)-5-(4-hydroxycyclohexyl)-8-(morpholinomethyl)pyrimido [4,5-c]isoquinolin-6(5H)-one]",174 nM
6,"CCCCNc1ncc2c3ccc(CN4CCN(C)CC4)cc3c(=O)n([C@H]3CC[C@@H](O)CC3)c2n1 [Compound 5, cis-3-(Butylamino)-5-(4-hydroxycyclohexyl)-8-((4-methylpiperazin-1-yl)methyl)pyrimido[4,5-c]isoquinolin-6(5H)-one]",98 nM
7,"CCCCNc1ncc2c3ccc(CN4CCN(C)CC4)cc3c(=O)n(CC3CCC(O)CC3)c2n1 (centres unmarked) [Compound 6, 3-(Butylamino)-5-((4-hydroxycyclohexyl)methyl)-8-((4-methylpiperazin-1-yl)methyl)pyrimido[4,5-c]isoquinolin-6(5H)-one]",2040 nM
8,"CCCCNc1ncc2c3ccc(CN4CCOCC4)cc3c(=O)n(CC3CCC(N)CC3)c2n1 (centres unmarked) [Compound 9, 5-((4-Aminocyclohexyl)methyl)-3-(butylamino)-8-(morpholinomethyl)pyrimido [4,5-c]isoquinolin-6(5H)-one]",116 nM
9,"CCCCNc1ncc2c3ccc(CN4CCN(C)CC4)cc3c(=O)n(CC3CCC(N)CC3)c2n1 (centres unmarked) [Compound 10, 5-((4-Aminocyclohexyl)methyl)-3-(butylamino)-8-((4-methylpiperazin-1-yl)methyl)pyrimido[4,5-c]isoquinolin-6(5H)-one]",146 nM
10,"CN1CCN(Cc2ccc3c(c2)c(=O)n([C@H]2CC[C@H](O)CC2)c2nc(NC4CC(F)(F)C4)ncc32)CC1 [Compound 12, trans-3-((3,3-Difluorocyclobutyl)amino)-5-(4-hydroxycyclohexyl)-8-((4-methylpiperazin-1-yl)methyl)pyrimido[4,5-c]isoquinolin-6(5H)-one]",116 nM
11,"CN1CCN(Cc2ccc3c(c2)c(=O)n([C@H]2CC[C@H](O)CC2)c2nc(NC4CC(F)C4)ncc32)CC1 (stereo partly drawn) [Compound 13, trans-3-((3-Fluorocyclobutyl)amino)-5-(4-hydroxycyclohexyl)-8-((4-methylpiperazin-1-yl)methyl)pyrimido[4,5-c]isoquinolin-6(5H)-one]",144 nM
12,"CCCCNc1ncc2c3ccc(CN4CCN(C)CC4)cc3c(=O)n(C3CC4(CC(O)C4)C3)c2n1 (centres unmarked) [Compound 14, 3-(Butylamino)-5-(6-hydroxyspiro[3.3]heptan-2-yl)-8-((4-methylpiperazin-1-yl)methyl)pyrimido[4,5-c]isoquinolin-6(5H)-one]",56.4 nM
13,"CCCCNc1ncc2c3ccc(CN4CCN(C)CC4)cc3c(=O)n(C3CCC(C)(O)CC3)c2n1 (stereo not drawn) [Compound 15, trans-3-(Butylamino)-5-(4-hydroxy-4-methylcyclohexyl)-8-((4-methylpiperazin-1-yl)methyl)pyrimido[4,5-c]isoquinolin-6(5H)-one]",5.9 nM
14,"CN1CCN(Cc2ccc3c(c2)c(=O)n([C@H]2CC[C@H](O)CC2)c2nc(NCC4CC4)ncc32)CC1 [Compound 16, trans-3-((Cyclopropylmethyl)amino)-5-(4-hydroxycyclohexyl)-8-((4-methylpiperazin-1-yl)methyl)pyrimido[4,5-c]isoquinolin-6(5H)-one]",63.9 nM
15,"CCCCNc1ncc2c3ccc(CN4CCN(C)CC4)cc3c(=O)n([C@H]3CC[C@@](C)(O)CC3)c2n1 [Compound 17, cis-3-(Butylamino)-5-(4-hydroxy-4-methylcyclohexyl)-8-((4-methylpiperazin-1-yl)methyl)pyrimido[4,5-c]isoquinolin-6(5H)-one]",68 nM
16,"CCC1(CNc2ncc3c4ccc(CN5CCN(C)CC5)cc4c(=O)n([C@H]4CC[C@H](O)CC4)c3n2)CCC1 [Compound 18, trans-3-(((1-Ethylcyclobutyl)methyl)amino)-5-(4-hydroxycyclohexyl)-8-((4-methylpiperazin-1-yl)methyl)pyrimido[4,5-c]isoquinolin-6(5H)-one]",277 nM
17,"CCC1(CNc2ncc3c4ccc(CN5CCOCC5)cc4c(=O)n([C@H]4CC[C@H](O)CC4)c3n2)CCC1 [Compound 19, trans-3-(((1-Ethylcyclobutyl)methyl)amino)-5-(4-hydroxycyclohexyl)-8-(morpholinomethyl)pyrimido [4,5-c]isoquinolin-6(5H)-one]",697 nM
18,"O=c1c2cc(CN3CCOCC3)ccc2c2cnc(NCC3CCC3)nc2n1[C@H]1CC[C@H](O)CC1 [Compound 21, trans-3-((Cyclobutylmethyl)amino)-5-(4-hydroxycyclohexyl)-8-(morpholinomethyl)pyrimido [4,5-c]isoquinolin-6(5H)-one]",30.7 nM
19,"CCC1(CNc2ncc3c4ccc(CN5CCN(C)CC5)cc4c(=O)n([C@H]4CC[C@H](O)CC4)c3n2)CC1 [Compound 22, trans-3-(((1-Ethylcyclopropyl)methyl)amino)-5-(4-hydroxycyclohexyl)-8-((4-methylpiperazin-1-yl)methyl)pyrimido[4,5-c]isoquinolin-6(5H)-one]",589 nM
20,CCC1(CNc2ncc3c4ccc(CN5CCOCC5)cc4c(=O)n([C@H]4CC[C@H](O)CC4)c3n2)CC1 [Compound 23],1180 nM
21,"CCC(F)(F)CNc1ncc2c3ccc(CN4CCN(C)CC4)cc3c(=O)n([C@H]3CC[C@H](O)CC3)c2n1 [Compound 24, trans-3-((2,2-Difluorobutyl)amino)-5-(4-hydroxycyclohexyl)-8-((4-methylpiperazin-1-yl)methyl)pyrimido[4,5-c]isoquinolin-6(5H)-one]",221 nM
22,"CN1CCN(Cc2ccc3c(c2)c(=O)n([C@H]2CC[C@H](O)CC2)c2nc(NCCCC(F)(F)F)ncc32)CC1 [Compound 25, trans-5-(4-hydroxycyclohexyl)-8-((4-methylpiperazin-1-yl)methyl)-3-((4,4,4-trifluorobutyl)amino)pyrimido [4,5-c]isoquinolin-6(5H)-one]",1680 nM
23,"CN1CCN(Cc2ccc3c(c2)c(=O)n([C@H]2CC[C@H](O)CC2)c2nc(NCCC4CC4)ncc32)CC1 [Compound 26, trans-3-((2-Cyclopropylethyl)amino)-5-(4-hydroxycyclohexyl)-8-((4-methylpiperazin-1-yl)methyl)pyrimido[4,5-c]isoquinolin-6(5H)-one]",16.7 nM
